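Values below derive from 48-hour exposures of cells grown in 96-well plates, with endpoints linearly interpolated between the two concentrations bracketing the appropriate inhibition level. The concentration for full growth arrest is given as TGI.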
Key:
Assay in all cases: DTP human tumour cell line panel, 48 h
[1] = test system: COLO 205 colon
[2] = test system: SK-MEL-5 melanoma
[3] = test system: NCI-H23 lung
[4] = test system: RXF 393 renal
[5] = test system: SN12C renal
[6] = test system: HT29 colon
[7] = test system: OVCAR-5 ovarian
[8] = test system: UACC-257 melanoma
[9] = test system: HL-60(TB) leukemia
[10] = test system: NCI-H522 lung
[11] = test system: SNB-19 CNS
[12] = test system: HCC-2998 colon
[13] = test system: HOP-92 NSCLC
[14] = test system: NCI-H226 lung
[15] = test system: MOLT-4 leukemia
[16] = test system: K-562 leukemia
[17] = test system: ACHN renal
[18] = test system: A498 renal
[19] = test system: SR leukemia
[20] = test system: OVCAR-8 ovarian
[21] = test system: HOP-62 NSCLC
[22] = test system: HCT-15 colon
[23] = test system: SNB-75 CNS
[24] = test system: SK-OV-3 ovarian
[25] = test system: CCRF-CEM leukemia
[26] = test system: LOX IMVI melanoma
[27] = test system: UO-31 renal
[28] = test system: OVCAR-3 ovarian
[29] = test system: DLD-1 colon
[30] = test system: SF-295 CNS
[31] = test system: SK-MEL-28 melanoma
[32] = test system: DMS 273 small cell lung
[33] = test system: SW-620 colon
[34] = test system: DMS 114 small cell lung
[35] = test system: SF-268 CNS
[36] = test system: CAKI-1 renal
[37] = test system: U251 CNS
[38] = test system: OVCAR-4 ovarian
[39] = test system: M19-MEL melanoma
[40] = test system: UACC-62 melanoma
[41] = test system: SF-539 CNS
[42] = test system: NCI-H460 lung
[43] = test system: EKVX NSCLC
[44] = test system: A549 NSCLC
[45] = test system: MALME-3M melanoma
[46] = test system: M14 melanoma
[47] = test system: SNB-78 CNS
[48] = test system: HOP-18 NSCLC
[49] = test system: XF 498 CNS
[50] = test system: LXFL 529 NSCLC
[51] = test system: TK-10 renal
[52] = test system: IGROV1 ovarian
[53] = test system: KM20L2 colon
[54] = test system: HCT-116 colon
[55] = test system: KM12 colon
[56] = test system: SK-MEL-2 melanoma
[57] = test system: 786-0 renal
[58] = test system: RPMI-8226 leukemia
[59] = test system: RXF-631 renal

## Cc1cc(NS(=O)(=O)c2ccc(Nc3c4ccccc4nc4c(C(=O)N5CCN(CCO)CC5)cccc34)cc2)no1
[1]
  TGI: > 100 µM
[2]
  TGI: > 100 µM
[3]
  TGI: > 100 µM
[4]
  TGI: > 100 µM
[5]
  TGI: > 100 µM
[6]
  TGI: > 100 µM
[7]
  TGI: > 100 µM
[8]
  TGI: > 100 µM
[9]
  TGI: > 100 µM
[10]
  TGI: > 100 µM
[11]
  TGI: > 100 µM
[12]
  TGI: > 100 µM
[13]
  TGI: > 100 µM
[14]
  TGI: > 100 µM
[15]
  TGI: > 100 µM
[16]
  TGI: > 100 µM
[17]
  TGI: > 100 µM
[18]
  TGI: > 100 µM
[19]
  TGI: > 100 µM
[20]
  TGI: > 100 µM
[21]
  TGI: > 100 µM
[22]
  TGI: > 100 µM
[23]
  TGI: > 100 µM
[24]
  TGI: > 100 µM
[25]
  TGI: > 100 µM
[26]
  TGI: > 100 µM
[27]
  TGI: > 100 µM
[28]
  TGI: > 100 µM
[29]
  TGI: > 100 µM
[30]
  TGI: > 100 µM
[31]
  TGI: > 100 µM
[32]
  TGI: > 100 µM
[33]
  TGI: > 100 µM
[34]
  TGI: > 100 µM
[35]
  TGI: > 100 µM
[36]
  TGI: > 100 µM
[37]
  TGI: > 100 µM
[38]
  TGI: > 100 µM
[39]
  TGI: > 100 µM
[40]
  TGI: > 100 µM
[41]
  TGI: > 100 µM
[42]
  TGI: > 100 µM
[43]
  TGI: > 100 µM
[44]
  TGI: > 100 µM
[45]
  TGI: > 100 µM
[46]
  TGI: > 100 µM
[47]
  TGI: > 100 µM
[48]
  TGI: > 100 µM
[49]
  TGI: > 100 µM
[50]
  TGI: > 100 µM
[51]
  TGI: > 100 µM
[52]
  TGI: > 100 µM
[53]
  TGI: > 100 µM
[54]
  TGI: > 100 µM
[55]
  TGI: > 100 µM
[56]
  TGI: > 100 µM
[57]
  TGI: > 100 µM

## CC1=CC(C)(C)N=C2SC(c3ccc(N)cc3)=NN12
[1]
  TGI: > 61.2 µM
[2]
  TGI: > 100 µM
[3]
  TGI: > 100 µM
[4]
  TGI: > 100 µM
[5]
  TGI: > 100 µM
[6]
  TGI: 98.2 µM
[7]
  TGI: > 100 µM
[8]
  TGI: > 100 µM
[9]
  TGI: > 53 µM
[58]
  TGI: > 66.3 µM
[10]
  TGI: > 100 µM
[11]
  TGI: > 100 µM
[12]
  TGI: > 100 µM
[13]
  TGI: > 100 µM
[14]
  TGI: > 100 µM
[15]
  TGI: > 100 µM
[16]
  TGI: > 66 µM
[17]
  TGI: > 100 µM
[18]
  TGI: > 100 µM
[19]
  TGI: > 72.1 µM
[20]
  TGI: > 100 µM
[21]
  TGI: > 100 µM
[22]
  TGI: > 58.7 µM
[23]
  TGI: > 100 µM
[24]
  TGI: > 100 µM
[25]
  TGI: > 72.4 µM
[26]
  TGI: > 100 µM
[27]
  TGI: > 100 µM
[28]
  TGI: > 100 µM
[29]
  TGI: > 68.9 µM
[30]
  TGI: > 100 µM
[31]
  TGI: > 100 µM
[59]
  TGI: > 100 µM
[32]
  TGI: > 61.2 µM
[33]
  TGI: > 61.2 µM
[34]
  TGI: > 100 µM
[35]
  TGI: > 100 µM
[36]
  TGI: > 100 µM
[37]
  TGI: > 100 µM
[38]
  TGI: > 100 µM
[39]
  TGI: > 100 µM
[40]
  TGI: > 100 µM
[41]
  TGI: > 100 µM
[42]
  TGI: > 100 µM
[43]
  TGI: > 100 µM
[44]
  TGI: > 100 µM
[45]
  TGI: > 100 µM
[46]
  TGI: > 100 µM
[47]
  TGI: > 100 µM
[48]
  TGI: > 100 µM
[49]
  TGI: > 100 µM
[50]
  TGI: > 77.6 µM
[51]
  TGI: > 100 µM
[52]
  TGI: > 100 µM
[53]
  TGI: > 100 µM
[54]
  TGI: > 100 µM
[55]
  TGI: > 100 µM
[56]
  TGI: > 100 µM
[57]
  TGI: > 100 µM

From PubChem BioAssay (NCI)
